Laboratory results as given in article PMC13489962, “Small-molecule modulation of β-arrestins” (Nature, 2026).

System: βARR1 MCL site mutants coupling to pβ2V2R
Assay: [3H]-Fen binding with βARR1 MCL site mutants
Format: biochemical, Rattus norvegicus
Settings: mutations P131A, D135A, K138A, C140A and E283A
Experimental: The expression and purification of β-arrestins have been described previously[44],[62]–[64]. In brief, E. coli BL21 (DE3) pLysS cells (New England Biolabs: C2527I) carrying pGEX4T1-Rattus norvegicus βARR1 or βARR2 construct, with their C terminus truncated (at amino acid 393 or 394, respectively), were cultured in Terrific Broth (Teknova) medium at 37 °C. After OD600 reached 0.6–0.8, the cells were induced with 0.1 mM isopropyl-β-D-thiogalactopyranoside (IPTG) at 18 °C overnight. […] Eluted fractions were analysed by SDS–PAGE, pooled, concentrated using 30 kDa MWCO Amicon Ultra-15 Centrifugal Filter devices, flash-frozen in liquid nitrogen, and stored in aliquots at −80 °C. […] Protein concentrations for each protein were determined by ultraviolet absorption at 280 nm and extinction coefficients estimated using the ExPASy ProtParam tool[67].
To assess the effects of β-arrestin modulators on β-arrestin- or Gαs–βγ-promoted high-affinity agonist binding, [^3H]-Fen binding assays were performed using membranes from Sf9 cells expressing phosphorylated β2V2R (pβ2V2R) or β2AR[28]. […] Bound [^3H]-Fen was extracted overnight in scintillation fluid and quantified by scintillation counting. Specific binding was calculated by subtracting nonspecific from total binding.

## C=C1C(=O)[C@]23[C@H](O)[C@H]1CC[C@H]2[C@@]12CO[C@]3(O)[C@@H](O)[C@@H]1C(C)(C)CC[C@@H]2O [Cmpd-5, (1S,4aR,5S,6S,6aR,9S,11aS,11bS,14R)-1,5,6,14-tetrahydroxy−4,4-dimethyl-8-methylenedecahydro-1H-6,11b-(epoxymethano)-6a,9-methanocyclohepta[a]naphthalen-7(8H)-one]
  effect of mutation on Cmpd-5 inhibition of βARR1 coupling: negligible effects
